Data from patent publication US9757353B2, “Methods of inducing anesthesia” (THE REGENTS OF THE UNIVERSITY OF CALIFORNIA, priority 2012, dated 2017).

Tests used:
[1] = target: GABAA (α1β2γ2s) receptors (UniProt P14867+P18508+P63138); experiment: Oocyte two-electrode voltage clamp, GABAA receptor currents; conditions: for GABAA % Direct Effect: drug response without receptor agonist, percent of control agonist peak, saturated drug, mean ± SEM, 5-6 oocytes; for GABAA Drug Response: saturated drug + agonist
[2] = target: T1, NMDA (NR1/NR2A) receptors (Rattus norvegicus, UniProt P35439+Q00959); experiment: Oocyte two-electrode voltage clamp, NMDA receptor currents; format: cell-based; conditions: for NMDA % Direct Effect: drug response without receptor agonist, percent of control agonist peak, saturated drug, mean ± SEM, 5-6 oocytes; for NMDA Drug Response: saturated drug + agonist; for direct effect on NMDA receptors (in words): absence of glutamate and glycine agonist
T1 construct: expressed in transfected cells; host or cells: Xenopus laevis oocytes, injected with in vitro transcribed RNA (1:1), clones a gift from Dr. R. A. Harris
Text: Methods: GABAA (α1β2γ2s) or NMDA (NR1/NR2A) receptors were expressed in oocytes and studied using standard two-electrode voltage clamp techniques. Hydrocarbons from 14 different organic functional groups were studied at saturated concentrations, and compounds within each group differed only by the carbon number at the ω-position or within a saturated ring. An effect on GABAA or NMDA receptors was defined as a 10% or greater reversible current change from baseline that was statistically different from zero.
Oocyte Collection and Receptor Expression. An ovary from tricaine-anesthetized Xenopus laevis frogs was surgically removed using a protocol approved by the Institutional Animal Care and Use Committee at the University of California, Davis. Following manual disruption of the ovarian lobule septae, the ovary was incubated in 0.2% Type I collagenase (Worthington Biochemical, Lakewood, N.J.) to defolliculate oocytes which were washed and stored in fresh and filtered modified Barth's solution composed of 88 mM NaCl, 1 mM KCl, 2.4 mM NaHCO3, 20 mM HEPES, 0.82 mM MgSO4, 0.33 mM Ca(NO3)2, 0.41 mM CaCl2, 5 mM sodium pyruvate, gentamycin, penicillin, streptomycin, and corrected to pH=7.4. All salts and antibiotics were A.C.S. grade (Fisher Scientific, Pittsburgh, Pa.).
Clones used were provided as a gift from Dr. R. A. Harris (University of Texas, Austin) and were sequenced and compared to references in the National Center for Biotechnology Information database to confirm the identity of each gene. GABAA receptors were expressed using clones for the human GABAA α1 and the rat GABAA β2 and γ2s subunits in pCIS-II vectors. […] In separate oocytes, glutamate receptors were expressed using rat NMDA NR1 clones in a pCDNA3 vector and rat NMDA NR2A clones in a Bluescript vector. RNA encoding each subunit was prepared using a commercial transcription kit (T7 mMessage mMachine, Ambion, Austin, Tex.) was mixed in a 1:1 ratio, and 1-10 ng of total RNA was injected into oocytes and studied 1-2 days later.
NMDA Receptor Electrophysiology Studies. […] Briefly, baseline perfusion solutions were the same as for GABAA with the substitution of equimolar BaCl2 for calcium salts and the addition of 0.1 mM EGTA; this constituted barium frog Ringer's solution (BaFR). Agonist solutions for NMDA studies also contained 0.1 mM glutamate (E) and 0.01 mM glycine (G) to constitute a BaFREG solution.
The syringe pump and perfusion chamber apparatus as well as the clamp holding potential and baseline-agonist exposure protocols were identical to that described for the GABAA studies. The same test compounds, concentrations, and preparative methods were used in NMDA voltage clamp studies as in the GABAA voltage clamp studies (Table 2).
Response Calculations and Data Analysis. Modulating drug responses were calculated as the percent of the control (baseline) peak as follows:
[formula] where ID and IB were the peak currents measured during agonist+drug and agonist baseline perfusions, respectively. When present, direct receptor activation by a drug was similarly calculated as a percent of the agonist response. […] A lack of receptor response (cut-off) was defined as a <10% change from baseline current that was statistically indistinguishable from zero using a two-tailed Student t-test.

[3] = saturating aqueous concentration

Chain of GABAA (α1β2γ2s) receptors (P14867 28-456): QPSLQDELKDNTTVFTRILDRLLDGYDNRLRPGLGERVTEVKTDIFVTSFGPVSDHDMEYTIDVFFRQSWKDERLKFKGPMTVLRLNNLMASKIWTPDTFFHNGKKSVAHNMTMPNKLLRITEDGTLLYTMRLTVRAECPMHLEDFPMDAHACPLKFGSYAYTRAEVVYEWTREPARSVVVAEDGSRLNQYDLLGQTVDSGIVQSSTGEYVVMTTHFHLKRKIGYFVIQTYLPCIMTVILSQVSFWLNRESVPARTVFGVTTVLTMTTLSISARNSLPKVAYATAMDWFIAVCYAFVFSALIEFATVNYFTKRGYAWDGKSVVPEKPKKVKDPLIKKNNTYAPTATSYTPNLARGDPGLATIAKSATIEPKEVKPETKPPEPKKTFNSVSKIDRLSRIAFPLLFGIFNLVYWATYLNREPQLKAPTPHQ
Chain of GABAA (α1β2γ2s) receptors (P63138 25-474 limits assumed): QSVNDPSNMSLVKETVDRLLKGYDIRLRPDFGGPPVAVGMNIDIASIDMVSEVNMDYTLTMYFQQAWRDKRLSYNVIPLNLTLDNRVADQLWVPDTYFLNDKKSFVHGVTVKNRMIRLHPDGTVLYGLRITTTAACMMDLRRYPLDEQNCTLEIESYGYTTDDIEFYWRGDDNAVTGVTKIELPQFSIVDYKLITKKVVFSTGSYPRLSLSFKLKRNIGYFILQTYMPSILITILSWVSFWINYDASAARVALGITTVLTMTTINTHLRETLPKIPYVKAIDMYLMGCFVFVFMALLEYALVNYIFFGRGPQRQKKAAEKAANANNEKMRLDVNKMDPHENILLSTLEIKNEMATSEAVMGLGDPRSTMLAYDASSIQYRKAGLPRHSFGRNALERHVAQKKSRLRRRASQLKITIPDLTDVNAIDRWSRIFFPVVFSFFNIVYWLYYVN
Chain of GABAA (α1β2γ2s) receptors (P18508 39-466): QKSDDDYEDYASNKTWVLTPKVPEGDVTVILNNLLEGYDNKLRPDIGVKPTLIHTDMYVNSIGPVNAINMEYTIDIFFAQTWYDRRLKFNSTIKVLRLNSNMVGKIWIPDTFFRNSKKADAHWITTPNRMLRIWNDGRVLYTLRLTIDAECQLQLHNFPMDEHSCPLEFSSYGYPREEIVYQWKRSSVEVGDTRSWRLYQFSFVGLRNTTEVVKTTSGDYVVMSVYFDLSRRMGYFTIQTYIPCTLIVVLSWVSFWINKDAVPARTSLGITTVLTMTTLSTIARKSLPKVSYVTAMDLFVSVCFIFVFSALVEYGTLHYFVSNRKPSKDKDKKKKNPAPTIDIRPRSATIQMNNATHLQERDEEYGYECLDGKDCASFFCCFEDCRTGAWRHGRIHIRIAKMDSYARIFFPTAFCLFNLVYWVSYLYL
T1 sequence (Q00959 23-1464, other chains not shown): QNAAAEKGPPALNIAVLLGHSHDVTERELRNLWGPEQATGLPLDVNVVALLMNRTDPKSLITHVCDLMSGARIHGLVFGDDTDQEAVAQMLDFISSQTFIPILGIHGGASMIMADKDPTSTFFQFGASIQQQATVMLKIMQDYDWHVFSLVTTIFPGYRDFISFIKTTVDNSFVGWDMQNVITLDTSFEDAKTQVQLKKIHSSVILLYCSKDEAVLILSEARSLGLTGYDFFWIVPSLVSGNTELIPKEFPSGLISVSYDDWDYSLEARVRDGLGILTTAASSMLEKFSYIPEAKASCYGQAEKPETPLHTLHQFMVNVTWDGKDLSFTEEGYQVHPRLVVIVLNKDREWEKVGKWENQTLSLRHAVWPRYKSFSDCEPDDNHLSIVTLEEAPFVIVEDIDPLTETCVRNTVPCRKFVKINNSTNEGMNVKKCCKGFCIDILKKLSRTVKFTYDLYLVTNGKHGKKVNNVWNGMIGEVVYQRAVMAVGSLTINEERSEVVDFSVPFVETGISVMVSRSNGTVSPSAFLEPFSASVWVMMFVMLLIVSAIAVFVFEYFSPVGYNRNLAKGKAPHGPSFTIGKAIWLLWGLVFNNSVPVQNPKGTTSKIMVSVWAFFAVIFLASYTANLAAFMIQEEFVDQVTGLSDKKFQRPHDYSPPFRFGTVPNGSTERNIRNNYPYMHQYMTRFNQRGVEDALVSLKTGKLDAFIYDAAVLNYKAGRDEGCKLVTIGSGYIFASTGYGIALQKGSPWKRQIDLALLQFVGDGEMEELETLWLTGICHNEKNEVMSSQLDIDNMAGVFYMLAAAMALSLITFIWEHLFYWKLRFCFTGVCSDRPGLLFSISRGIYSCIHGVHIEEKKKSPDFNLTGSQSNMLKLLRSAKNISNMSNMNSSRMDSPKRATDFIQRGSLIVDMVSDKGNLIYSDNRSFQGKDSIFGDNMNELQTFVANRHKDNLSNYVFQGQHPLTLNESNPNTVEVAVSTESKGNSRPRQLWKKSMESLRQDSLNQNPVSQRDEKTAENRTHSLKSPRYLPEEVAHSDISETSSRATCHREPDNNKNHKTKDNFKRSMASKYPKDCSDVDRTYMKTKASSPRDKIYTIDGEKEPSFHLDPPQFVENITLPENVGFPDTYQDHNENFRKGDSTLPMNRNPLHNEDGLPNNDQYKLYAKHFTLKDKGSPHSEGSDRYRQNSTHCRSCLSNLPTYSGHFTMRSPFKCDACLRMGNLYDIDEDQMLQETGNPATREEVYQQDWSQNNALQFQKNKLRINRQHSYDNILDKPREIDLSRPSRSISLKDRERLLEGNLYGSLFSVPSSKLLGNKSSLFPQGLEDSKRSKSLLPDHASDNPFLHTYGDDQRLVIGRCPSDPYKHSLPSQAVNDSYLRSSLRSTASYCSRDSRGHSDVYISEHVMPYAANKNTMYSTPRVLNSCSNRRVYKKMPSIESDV

| Molecule | GABAA % Direct Effect [1] | GABAA Drug Response [1] | NMDA % Direct Effect [2] | NMDA Drug Response [2] | direct effect on NMDA receptors (in words) [2] | GABAA receptor modulation (in words) [1, 3] | NMDA receptor modulation (in words) [2, 3] |
| --- | --- | --- | --- | --- | --- | --- | --- |
| CCCCCCCCCC(=O)OCC [ethyl decanoate] | none | + (potentiation (+) for drug+agonist responses greater than the control agonist peak) | none | 0 (no response (0) for drug+agonist responses that differ by <10% from the control agonist peak) | – | – | – |
| CCCCCCCC=O [octanal] | – | + (potentiation (+) for drug+agonist responses greater than the control agonist peak) | none | – | – | – | – |
| C#CCCCC [1-hexyne] | – | + (potentiation (+) for drug+agonist responses greater than the control agonist peak) | none | – | – | – | – |
| N-methylpiperadine | – | – | – | – | direct activation of NMDA receptors | – | – |
| C1CCCC1 [cyclopentane] | – | + (potentiation (+) for drug+agonist responses greater than the control agonist peak) | none | – | – | – | – |
| CCCCCCCCCC(C)=O [2-undecanone] | none | + (potentiation (+) for drug+agonist responses greater than the control agonist peak) | none | 0 (no response (0) for drug+agonist responses that differ by <10% from the control agonist peak) | – | – | – |
| CCCCCCCCCCO [1-decanol] | none | + (potentiation (+) for drug+agonist responses greater than the control agonist peak) | none | – | – | – | – |
| CCCCCCCC(=O)OCC [ethyl octanoate] | none | + (potentiation (+) for drug+agonist responses greater than the control agonist peak) | none | – | – | – | – |
| CCCCCCCCCCCO [1-undecanol] | none | + (potentiation (+) for drug+agonist responses greater than the control agonist peak) | none | 0 (no response (0) for drug+agonist responses that differ by <10% from the control agonist peak) | – | – | – |
| CCCCCCCCCCCCCCCCCCN [1-octadecanamine] | none | + (potentiation (+) for drug+agonist responses greater than the control agonist peak) | none | – | – | – | – |
| CCCCCCCCCCC=O [undecanal] | none | + (potentiation (+) for drug+agonist responses greater than the control agonist peak) | none | 0 (no response (0) for drug+agonist responses that differ by <10% from the control agonist peak) | – | – | – |
| C=CCCCC [1-hexene] | none | + (potentiation (+) for drug+agonist responses greater than the control agonist peak) | none | 0 (no response (0) for drug+agonist responses that differ by <10% from the control agonist peak) | – | – | – |
| CCCCCCCCCCC(C)=O [2-dodecanone] | none | + (potentiation (+) for drug+agonist responses greater than the control agonist peak) | none | 0 (no response (0) for drug+agonist responses that differ by <10% from the control agonist peak) | – | – | – |
| CCCCCCCCC=O [nonanal] | none | + (potentiation (+) for drug+agonist responses greater than the control agonist peak) | none | 0 (no response (0) for drug+agonist responses that differ by <10% from the control agonist peak) | – | – | – |
| CCCCCF [1-fluoropentane] | none | + (potentiation (+) for drug+agonist responses greater than the control agonist peak) | none | – | – | – | – |
| CN1CCOCC1 [4-methylmorpholine] | – | – | – | – | direct activation of NMDA receptors | – | – |
| CCCCCCF [1-fluorohexane] | – | + (potentiation (+) for drug+agonist responses greater than the control agonist peak) | none | 0 (no response (0) for drug+agonist responses that differ by <10% from the control agonist peak) | – | – | – |
| CCCCCCOCCCCCC [dihexylether] | none | + (potentiation (+) for drug+agonist responses greater than the control agonist peak) | none | 0 (no response (0) for drug+agonist responses that differ by <10% from the control agonist peak) | – | – | – |
| CCCCCCCCSCC [1-(ethylthio)-octane] | none | + (potentiation (+) for drug+agonist responses greater than the control agonist peak) | none | 0 (no response (0) for drug+agonist responses that differ by <10% from the control agonist peak) | – | – | – |
| CCc1cccc(CC)c1 [1,3-diethylbenzene] | none | + (potentiation (+) for drug+agonist responses greater than the control agonist peak) | none | 0 (no response (0) for drug+agonist responses that differ by <10% from the control agonist peak) | – | – | – |
| CCCCCCSCC [1-(ethylthio)-hexane] | none | + (potentiation (+) for drug+agonist responses greater than the control agonist peak) | none | – | – | – | – |
| CCCCCCS [1-hexanethiol] | – | + (potentiation (+) for drug+agonist responses greater than the control agonist peak) | none | 0 (no response (0) for drug+agonist responses that differ by <10% from the control agonist peak) | – | – | – |
| CCCCCCCCC(C)=O [2-decanone] | none | + (potentiation (+) for drug+agonist responses greater than the control agonist peak) | none | – | – | – | – |
| CCCCCC [hexane] | none | + (potentiation (+) for drug+agonist responses greater than the control agonist peak) | none | 0 (no response (0) for drug+agonist responses that differ by <10% from the control agonist peak) | – | – | – |
| CCCCCCCCF [1-fluoroctane] | none | + (potentiation (+) for drug+agonist responses greater than the control agonist peak) | none | 0 (no response (0) for drug+agonist responses that differ by <10% from the control agonist peak) | – | – | – |
| CCCC [butane] | none | + (potentiation (+) for drug+agonist responses greater than the control agonist peak) | none | – | – | positively modulate GABAA receptors | negatively modulates NMDA receptors |
| CCCCCCCCCCCCCCCCCCCCN [1-eicosanamine] | none | + (potentiation (+) for drug+agonist responses greater than the control agonist peak) | none | 0 (no response (0) for drug+agonist responses that differ by <10% from the control agonist peak) | – | – | – |
| CCCCCOCCCCC [dipentylether] | none | + (potentiation (+) for drug+agonist responses greater than the control agonist peak) | none | 0 (no response (0) for drug+agonist responses that differ by <10% from the control agonist peak) | – | – | – |
